Key:
Assay type in all cases: cell-based
CHIKV 181/clone25 = assay: CHIKV cytopathic effect (CPE) protection assay in Vero cells; conditions: Chikungunya virus; CHIKV 181/clone25, Vero cells, MOI=0.01, 48 hrs, protection from CPE (crystal violet, absorbance 595nm)
ONNV (SG-650) = assay: Activity of Example 1 against other alphaviruses: ONNV
MAYV = assay: Activity of Example 1 against other alphaviruses: MAYV
SINV (TR-339) = assay: organism not typed
VEEV (ZPC) = assay: microbe, parasite or virus in culture; conditions: Venezuelan equine encephalitis virus
Influenza = assay: Activity of Example 1 against non-alphaviruses: Influenza
Dengue = assay: Activity of Example 1 against non-alphaviruses: Dengue; conditions: Dengue virus
Vaccinia = assay: Activity of Example 1 against non-alphaviruses: Vaccinia; conditions: Orthopoxvirus vaccinia
BK Polyomavirus = assay: Activity of Example 1 against non-alphaviruses: BK Polyomavirus; conditions: Betapolyomavirus hominis

With `CN1C(=O)C(CC(=O)NCC2CCCCC2)Sc2ncccc21` (stereo not shown) [Example 1, N-(cyclohexylmethyl)-2-(1-methyl-2-oxo-2,3-dihydro-1H-pyrido[2,3-b][1,4]thiazin-3-yl)acetamide] the EC50 (CHIKV 181/clone25) was < 10 µM, the EC50 (ONNV (SG-650)) was < 10 µM and the EC50 (MAYV) was 10 to 49.9 µM. The EC50 (SINV (TR-339)) was > 100 µM, the EC50 (VEEV (ZPC)) was < 10 µM and the EC50 (Influenza) was > 100 µM. The EC50 (Dengue) was > 100 µM, the EC50 (Vaccinia) was > 100 µM and the EC50 (BK Polyomavirus) was > 100 µM.

`O=C(CC1Cc2ncccc2NC1=O)NCC1(F)CCCCC1` (stereo not shown) [Example 89, N-((1-fluorocyclohexyl)methyl)-2-(2-oxo-1,2,3,4-tetrahydro-1,5-naphthyridin-3-yl)acetamide] was tested, and the EC50 (CHIKV 181/clone25) was 10 to 49.9 µM.

With `O=C(CC1Cc2ncccc2NC1=O)NCc1ccc(F)cc1` (stereo not shown) [Example 90, N-(4-fluorobenzyl)-2-(2-oxo-1,2,3,4-tetrahydro-1,5-naphthyridin-3-yl)acetamide] the EC50 (CHIKV 181/clone25) was 10 to 49.9 µM.

`O=C(CC1Oc2ncccc2NC1=O)NCC1CCCCC1` (stereo not shown) [Example 91, N-(cyclohexylmethyl)-2-(2-oxo-2,3-dihydro-1H-pyrido[2,3-b][1,4]oxazin-3-yl)acetamide] showed an EC50 (CHIKV 181/clone25) of 10 to 49.9 µM.

`O=C(CC1CNc2cccnc2S1)NCC1CCCCC1` (stereo not shown) [Example 92, N-(cyclohexylmethyl)-2-(2,3-dihydro-1H-pyrido[2,3-b][1,4]thiazin-3-yl)acetamide] showed an EC50 (CHIKV 181/clone25) of 10 to 49.9 µM.

Source: patent US20220233549A1, “METHOD FOR ALPHAVIRUS INHIBITION” (priority 2019, published 2022)
